According to PMC5613016, “GRL-09510, a Unique P2-Crown-Tetrahydrofuranylurethane -Containing HIV-1 Protease Inhibitor, Maintains Its Favorable Antiviral Activity against Highly-Drug-Resistant HIV-1 Variants in vitro” (Scientific Reports, 2017):
Where two headings read alike, the source gives them in different places.

What was measured:
[1] = tested on: HIV-192UG029 (subtype A, X4); test: p24 production inhibition in PHA-PBMC; format: cell-based, HIV-1; conditions: Human immunodeficiency virus 1, read-out: EC50 HIV-192UG029 (subtype A, X4)
Procedure: (§1) The susceptibility of HIV-1LAI or HIV-2ROD to various compounds was determined as previously described[20]–[22]. Briefly, MT-2 cells (10^4/ml) were exposed to 100 TCID50 of HIV-1LAI or HIV-2ROD in the presence or absence of various concentrations of compounds in 96-well plates and were incubated at 37 °C for 7 days. After incubation, 100 μl of the medium was removed from each well, 3-(4,5-dimetylthiazol-2-yl)-2,5-diphenyltetrazolium bromide (MTT) solution (10 μl, 7.5 mg/ml in PBS) was added to each well, followed by incubation at 37 °C for 2 h. […] To determine the sensitivity of clinically isolated HIV-1s to compounds, PHA-PBMC (10^6/ml) were exposed to 50 TCID50 of each HIV-1 and cultured in the presence or absence of various concentrations of compounds in 10-fold serial dilutions in 96-well plates. In determining the drug-susceptibility of certain laboratory HIV-1 strains, MT-4 cells were employed as target cells as previously described[23],[24]. MT-4 cells (10^5/ml) were exposed to 100 TCID50 of drug-resistant HIV-1s in the presence or absence of various concentrations of compounds and were incubated at 37 °C. On day 7, the supernatants were harvested and the amounts of p24 were determined by using a fully-automated chemiluminescent enzyme immunoassay system (Lumipulse f: Fujirebio, Tokyo)[35]–[37]. […] All assays were performed in duplicate, and EC50 shown in this report represent average values of two to four independent experiments. PHA-PBMCs were derived from a single donor in each independent experiment. The research protocols described in the present study were carried out in accordance with relevant guidelines and regulations, and were approved in Ethics Committee for Epidemiological and General Research at the Faculty of Life Sciences, Kumamoto University.

HIV-1LAI = test: microbe, parasite or virus in culture; format: cell-based; conditions: for EC50: 100 TCID50, MTT assay, read-out: EC50 Against HIV-1LAI; for Selectivity Index (CC50/EC50) MT2/HIV-1LAI: ratio of CC50 to EC50 against HIV-1LAI
Procedure: as §1

HIV-2ROD = test: microbe, parasite or virus in culture; format: cell-based; conditions: for EC50: 100 TCID50, MTT assay, read-out: EC50 Against HIV-2ROD; for Selectivity Index (CC50/EC50) MT2/HIV-2ROD: ratio of CC50 to EC50 against HIV-2ROD
Procedure: as §1

HIV-1MDR/B = test: p24 production inhibition in PHA-PBMC; format: cell-based; conditions: for EC50: p24 Gag production; for fold change of EC50 HIV-1MDR/B: compared to EC50 for HIV-1ERS104pre
Procedure: as §1

HIV-1MDRmix DRV ^R 20P = test: p24 production inhibition in PHA-PBMC; format: cell-based; conditions: for fold change of EC50 HIV-1MDRmix DRV ^R 20P: compared to EC50 for HIV-1ERS104pre
Procedure: as §1

[2] = tested on: HIV-1ERS104pre (wild-type); test: p24 production inhibition in PHA-PBMC; format: cell-based; conditions: p24 Gag production
Procedure: as §1

HIV-1MDR/TM = test: p24 production inhibition in PHA-PBMC; format: cell-based; conditions: for EC50: p24 Gag production; for fold change of EC50 HIV-1MDR/TM: compared to EC50 for HIV-1ERS104pre
Procedure: as §1

HIV-1MDR/G = test: p24 production inhibition in PHA-PBMC; format: cell-based; conditions: for EC50: p24 Gag production; for fold change of EC50 HIV-1MDR/G: compared to EC50 for HIV-1ERS104pre
Procedure: as §1

HIV-1BaL (subtype B, R5) = test: p24 production inhibition in PHA-PBMC; format: cell-based; conditions: Human immunodeficiency virus 1, PHA-PBMC, p24 Gag production
Procedure: as §1

[3] = tested on: HIV-1ME46 (subtype B, X4/R5); test: p24 production inhibition in PHA-PBMC; format: cell-based; conditions: Human immunodeficiency virus 1, PHA-PBMC, p24 Gag production
Procedure: as §1

HIV-1MDR/C = test: p24 production inhibition in PHA-PBMC; format: cell-based; conditions: for EC50: p24 Gag production; for fold change of EC50 HIV-1MDR/C: compared to EC50 for HIV-1ERS104pre
Procedure: as §1

[4] = Cytotoxicity against MT-2 cells (MTT assay); format: cell-based; conditions: human
Procedure: as §1

HIV-1NL4-3 [5] = tested on: HIV-1NL4-3; set-up: method as in PMID 14506019; conditions: HIV-1NL4-3 in MT-4 cells, increasing concentrations; previously reported; cited from earlier work
HIV-1ATV ^R 5μM = test: p24 production inhibition in MT-4 cells; format: cell-based; conditions: for fold change of EC50 HIV-1ATV ^R 5μM: number in parentheses, compared to HIV-1NL4-3
Procedure: as §1

HIV-1NL4-3 [6] = test: p24 production inhibition in MT-4 cells; format: cell-based; conditions: p24 Gag production, Table 3
Procedure: as §1

HIV-1_9510 ^R 36P = test: p24 production inhibition in MT-4 cells; format: cell-based
Procedure: as §1

HIV-1APV ^R 5μM = test: p24 production inhibition in MT-4 cells; format: cell-based; conditions: for fold change of EC50 HIV-1APV ^R 5μM: number in parentheses, compared to HIV-1NL4-3
Procedure: as §1

HIV-1LPV ^R 5μM = test: p24 production inhibition in MT-4 cells; format: cell-based; conditions: for fold change of EC50 HIV-1LPV ^R 5μM: number in parentheses, compared to HIV-1NL4-3
Procedure: as §1

MT-2 cells = test: Cytotoxicity against MT-2 cells (MTT assay); format: cell-based
Procedure: as §1

HIV-1NL4-3 [7] = test: In vitro selection of resistant HIV-1 variants in MT-4 cells; format: cell-based; conditions: HIV-1NL4-3 in MT-4 cells, increasing concentrations
From the text: MT-4 cells (10^5/ml) were exposed to HIV-1NL4-3 (500 TCID50) and cultured in the presence of compounds at an initial concentration of its EC50 value. Viral replication was monitored by the determination of the amount of p24 produced by MT-4 cells. The supernatants were harvested on day 7 and were used to infect fresh MT-4 cells for the next round of culture in the presence of increasing concentrations of each compound. Proviral DNAs obtained from the lysates of infected cells were subjected to sequencing. This selection procedure was carried out until the drug concentration reached 5 μM as previously described[20]–[22]).

[8] = Human immunodeficiency virus 1, PHA-PBMC

CC(C)CN(C[C@@H](O)[C@H](Cc1ccccc1)NC(=O)O[C@H]1CCOC1)S(=O)(=O)c1ccc(N)cc1 [APV, Amprenavir]
EC50 [1]: 41 ± 2 nM
EC50 (HIV-1LAI; Human immunodeficiency virus 1, MT2, MT-2 cells): 37 ± 7 nM
Selectivity Index (CC50/EC50) MT2/HIV-1LAI (HIV-1LAI): 1,303
EC50 (HIV-2ROD; Human immunodeficiency virus 2, MT2, MT-2 cells): 297 ± 174 nM
Selectivity Index (CC50/EC50) MT2/HIV-2ROD (HIV-2ROD): 162
EC50 (HIV-1MDR/B; [8]): 420 ± 50 nM
fold change of EC50 HIV-1MDR/B (HIV-1MDR/B): 11
EC50 (HIV-1MDRmix DRV ^R 20P; Human immunodeficiency virus 1, read-out: EC50 HIV-1MDRmix DRV ^R 20P, PHA-PBMC, p24 Gag production): > 1000 nM
fold change of EC50 HIV-1MDRmix DRV ^R 20P (HIV-1MDRmix DRV ^R 20P): > 26
EC50 [2, 8]: 39 ± 5 nM
EC50 (HIV-1MDR/TM; [8]): 320 ± 50 nM
fold change of EC50 HIV-1MDR/TM (HIV-1MDR/TM): 8
EC50 (HIV-1MDR/G; [8]): 300 ± 90 nM
fold change of EC50 HIV-1MDR/G (HIV-1MDR/G): 8
EC50 (HIV-1BaL (subtype B, R5)): 29 ± 2 nM
EC50 [3]: 22 ± 40 nM
EC50 (HIV-1MDR/C; [8]): 250 ± 50 nM
fold change of EC50 HIV-1MDR/C (HIV-1MDR/C): 6
CC50 [4]: 48200 ± 9900 nM
passage at which selection concentration reached 5 µM (HIV-1NL4-3 [5]): ≥ 20
EC50 (HIV-1ATV ^R 5μM; Human immunodeficiency virus 1, MT4, read-out: EC50 HIV-1ATV ^R 5μM, MT-4 cells, p24 Gag production): 350 ± 70 nM
fold change of EC50 HIV-1ATV ^R 5μM (HIV-1ATV ^R 5μM): 9
EC50 (HIV-1NL4-3 [6]; Human immunodeficiency virus 1, MT4, MT-4 cells): 30 ± 6 nM
EC50 (HIV-1_9510 ^R 36P; Human immunodeficiency virus 1, MT4, read-out: EC50 HIV-19510RP36): 270 ± 20 nM
fold change of EC50 HIV-19510RP36 (HIV-1_9510 ^R 36P; compared to EC50 for HIV-1NL4-3, Supplemental Table 3): 9
EC50 (HIV-1APV ^R 5μM; Human immunodeficiency virus 1, MT4, read-out: EC50 HIV-1APV ^R 5μM, MT-4 cells, p24 Gag production): > 1000 nM
fold change of EC50 HIV-1APV ^R 5μM (HIV-1APV ^R 5μM): > 25
EC50 (HIV-1LPV ^R 5μM; Human immunodeficiency virus 1, MT4, read-out: EC50 HIV-1LPV ^R 5μM, MT-4 cells, p24 Gag production): > 1000 nM
fold change of EC50 HIV-1LPV ^R 5μM (HIV-1LPV ^R 5μM): > 25

COc1ccc(S(=O)(=O)N(CC(C)C)CC(O)C(Cc2ccccc2)NC(=O)OC2C3COC4OCC2C4C3)cc1 (centres unmarked) [GRL-09610]
EC50 (HIV-1LAI; MT-2 cells): 2.3 ± 0.7 nM
Selectivity Index (CC50/EC50) MT2/HIV-1LAI (HIV-1LAI): 14,391
EC50 (HIV-2ROD; MT-2 cells): 15 ± 9 nM
Selectivity Index (CC50/EC50) MT2/HIV-2ROD (HIV-2ROD): 2,207
EC50 (HIV-1MDR/B; PHA-PBMC): 14.5 ± 1.3 nM
fold change of EC50 HIV-1MDR/B (HIV-1MDR/B): 5
fold change of EC50 HIV-1MDRmix DRV ^R 20P (HIV-1MDRmix DRV ^R 20P): 78
EC50 (HIV-1MDRmix DRV ^R 20P; read-out: EC50 HIV-1MDRmix DRV ^R 20P, PHA-PBMC, p24 Gag production): 250 ± 30 nM
EC50 ([2]; PHA-PBMC): 3.2 ± 0.2 nM
EC50 (HIV-1MDR/TM; PHA-PBMC): 28.9 ± 1.6 nM
fold change of EC50 HIV-1MDR/TM (HIV-1MDR/TM): 9
EC50 (HIV-1MDR/G; PHA-PBMC): 15.8 ± 13.3 nM
fold change of EC50 HIV-1MDR/G (HIV-1MDR/G): 5
EC50 (HIV-1MDR/C; PHA-PBMC): 4.9 ± 1.8 nM
fold change of EC50 HIV-1MDR/C (HIV-1MDR/C): 2
CC50 (MT-2 cells): 33100 ± 1000 nM
passage at which selection concentration reached 5 µM (HIV-1NL4-3 [7]): ~43
fold change of EC50 HIV-1ATV ^R 5μM (HIV-1ATV ^R 5μM): 11
EC50 (HIV-1ATV ^R 5μM; read-out: EC50 HIV-1ATV ^R 5μM, MT-4 cells, p24 Gag production): 35.4 ± 0.8 nM
EC50 (HIV-1NL4-3 [6]; MT-4 cells): 3.2 ± 0.2 nM
fold change of EC50 HIV-1APV ^R 5μM (HIV-1APV ^R 5μM): 97
EC50 (HIV-1APV ^R 5μM; read-out: EC50 HIV-1APV ^R 5μM, MT-4 cells, p24 Gag production): 310 ± 90 nM
fold change of EC50 HIV-1LPV ^R 5μM (HIV-1LPV ^R 5μM): 10
EC50 (HIV-1LPV ^R 5μM; read-out: EC50 HIV-1LPV ^R 5μM, MT-4 cells, p24 Gag production): 32 ± 1 nM
